Among the data in PubChem BioAssay (NCI) are GI50 and TGI values, retold here.

Where “and” joins values, the source holds several entries; their conditions need not be identical. Equal entries are not always repeated.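 Five concentrations, 48 hours, 96-well plates. Abbreviation: GI50, concentration required for 50% inhibition of growth. TGI marks complete inhibition of growth.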

What all share (test): inhibition of tumour cell growth, NCI panel, 48 h
For test [1], the system named is CAKI-1 renal.
Test [2] relates to DU-145 prostate.
Test [3] deals with IGROV1 ovarian.
Test [4] concerns NCI-H226 lung.
Test [5] deals with NCI-H460 lung.
In test [6] the test system is OVCAR-8 ovarian.
Test [7] has as its system SF-268 CNS.
Test [8] has as its system SK-MEL-5 melanoma.
Test [9] relates to U251 CNS.
The test system of test [10] is UACC-257 melanoma.

Consider `COc1cc2c3c(n(CCN4CCOCC4)c(=O)c2cc1OC)-c1ccccc1C3=O`, for which the GI50 in [1] was 32.9 µM; in test [2], above 100 µM; in test [3] it was 17.2 µM; in test [4] it was above 100 µM; in test [5], 45.1 µM; in test [6], above 100 µM. For the same compound, the GI50 in test [7] is above 100 µM; in test [8], above 100 µM; in test [9], 62.3 µM; in test [10] it was above 100 µM. In addition, the TGI is 72.9 µM in test [1]; above 100 µM in [2]; above 100 µM in test [3]; above 100 µM in [4]; above 100 µM in test [5]; above 100 µM in [6]. Besides, the TGI in [7], in [8], in test [9] and in test [10] was above 100 µM throughout.

Take `COc1cc(C2c3cc4c(cc3[C@@H](Nc3ccc([N+](=O)[O-])cc3)C3COC(=O)[C@H]23)OCO4)cc(OC)c1O` (stereo partly specified): the GI50 was 0.154 µM in test [1]; 0.0658 µM in test [5]; 0.981 µM in test [6]; 0.914 µM in test [7]; 0.74 µM in [8]; 0.418 µM in test [9]. Also, the TGI in test [1] is 0.941 µM and 5.06 µM; in test [2], 37.9 µM; in test [3] it was 24.3 µM; in [4], 3.1 µM; in test [5], 2.14 µM; in test [6], 11 µM. The TGI was determined as 39.5 µM in [7], 3.94 µM in test [8], 7.69 µM in [9] and 34.5 µM in [10].

Regarding `COC(=O)c1ccc(NC(=O)c2ccc(NC3=C(Cl)C(=O)N(Cc4ccccc4)C3=O)cc2)cc1`, the GI50 in test [1] is 2.49 µM; in [2], 17.4 µM; in test [3] it was 1.53 µM; in test [4], 22 µM; in test [5], 27.3 µM; in test [6], 11 µM. For the same compound, the GI50 in test [7] was 22.2 µM; in test [8], 34.7 µM; in test [9] it was 9.63 µM; in test [10], 27.3 µM. The TGI in test [1] is 6.4 µM; in [2], 31.2 µM; in [3], 11.2 µM; in test [4], 40.6 µM; in [5] it was above 100 µM; in test [6], 24.7 µM. Further, the TGI in test [7] is 59 µM; in test [8], above 100 µM; in test [9] it was 21.4 µM; in test [10] it was 76.5 µM.

For the compound `Cc1ccc(N=Nc2c(O)ccc3n[nH]nc23)cc1`, the GI50 was 4.63 µM in test [1]; 16.1 µM in test [2]; 12.2 µM in [3]; 15.3 µM in [4]; 13.9 µM in [5]; 16.5 µM in test [6]. Moreover, the GI50 in test [7] is 14.9 µM; in test [8], 3.19 µM; in test [9], 11.4 µM; in test [10], 5.09 µM. The TGI in [1] is 38.9 µM; in [2], 44.9 µM; in [3], 50.6 µM; in test [4] it was above 100 µM; in [5] it was 52.9 µM; in [6], 75 µM. Besides, the TGI is 77.5 µM in [7], 13.2 µM in test [8], above 100 µM in test [9] and 39.5 µM in test [10].

Regarding `Cc1nn(Cc2ccccc2)cc1C(=O)Nc1sc2c(c1C(N)=O)CCC(=O)C2`, the GI50 in [1] is 1.42 µM; in [2] it was 3.73 µM; in test [3], 2.44 µM; in [4], 2.29 µM; in test [5], 3.52 µM; in test [6], 3.27 µM. The GI50 in [7] is 3.12 µM; in test [8], 1.83 µM; in [9], 2.62 µM; in [10] it was 2.16 µM. The TGI in [1] was 2.92 µM; in test [2], above 100 µM; in [3], 7.96 µM; in test [4] it was 5.7 µM; in test [5], 21.2 µM; in [6], above 100 µM. Further, the TGI in [7] was 21.8 µM; in [8], 3.33 µM; in test [9], above 100 µM; in test [10], 6.24 µM.

For `Cc1cc(N(CCC#N)CCC#N)ccc1/C=C(\NC(=O)/C=C/c1ccccc1)C(=O)Nc1ccc(Cl)cc1`, the TGI in [1] was 98 µM; in [2] it was above 100 µM; in [3] it was above 100 µM; in test [4] it was above 100 µM; in [5] it was above 100 µM; in test [6], above 100 µM. Moreover, the TGI in test [7] is above 100 µM; in [8], 5.95 µM; in test [9], above 43.9 µM; in test [10], above 100 µM.

On to `Cc1c(NC(=O)Nc2c(Cl)cccc2Cl)c(=O)n(-c2ccccc2)n1C`, for which the TGI in test [1], in test [2], in test [3], in test [4], in [5] and in [6] was above 100 µM each time. In addition, the TGI in [7], in test [8], in test [9] and in [10] was above 100 µM each time.

Take `Cc1ccnc2c(NC(C)CCCN)cc(O)c(O)c12` (stereo unspecified): the GI50 in test [1] was 38.7 µM; in test [2] it was 11.2 µM; in test [3], 12.5 µM; in [4], 27.7 µM; in [5], 27.4 µM; in test [6], 6.62 µM. For the same compound, the GI50 was 21.2 µM in test [7], 17.6 µM in test [8], 9.43 µM in test [9] and 22.3 µM in [10]. Also, the TGI is above 100 µM in test [1]; 24.2 µM in [2]; 32.9 µM in [3]; above 100 µM in test [4]; above 100 µM in test [5]; 82.6 µM in test [6]. The TGI was found to be 74.2 µM in test [7], 42.1 µM in [8], 22.8 µM in [9] and 55.5 µM in test [10].
